These results are taken from patent US20230150951A1, “2,5- OR 2,6-DISUBSTITUTED HYDROQUINONE DERIVATIVES WITH AT LEAST ONE CARBOXY, SULFO OR AMIDO GROUP USEFUL AS MEDICAMENTS” (OM PHARMA SA, priority 2020, published 2023).

Data set [1] can be described thus: Prodrug stability in human plasma. It is filed as in vitro ADME. As to conditions: for half-life: read-out: T1/2 (human plasma).
Data set [2] can be described thus: Prodrug stability in mouse plasma. As to conditions: for half-life: read-out: T1/2 (mouse plasma). It is filed as in vitro ADME.

On to `O=C(OCCN1CCOCC1)c1cc(O)cc(CS(=O)(=O)Cc2cc(O)cc(C(=O)OCCN3CCOCC3)c2O)c1O` [IVc-059a-mpe2, 2,5-Dihydroxy-3-[[2,5-hydroxy-3-(2-morpholinoethoxycarbonyl)phenyl]methylsulfonyl-methyl]benzoic acid 2-morpholinoethyl ester], for which the “T1/2 (human plasma)” value in data set [1] is more than 180 min. Further, the “Stability in mouse plasma (in words)” value in data set [2] is listed as “stable up to 60 min”.

For `CC(C)(C)C(=O)OCOC(=O)c1cc(O)cc(CS(=O)(=O)Cc2cc(O)cc(C(=O)OCOC(=O)C(C)(C)C)c2O)c1O` [IVc-059a-pivm2, 2,2-Dimethylpropanoyloxymethyl 2,5-dihydroxy-3-[[2,5-dihydroxy-3-(2,2-dimethyl-propanoyloxymethoxycarbonyl)phenyl]methylsulfonylmethyl]benzoate], the half-life in data set [1] is more than 180 min; in data set [2], 14.1 min. The “Stability in mouse plasma (in words)” value in data set [2] was “hydrolyzed rapidly”.

As for `CC(OC(=O)c1cc(O)cc(CS(=O)(=O)Cc2cc(O)cc(C(=O)OC(C)OC(=O)C(C)(C)C)c2O)c1O)OC(=O)C(C)(C)C` (stereo not shown) [IVc-059a-pive2, 3-[[3-[1-(2,2-Dimethylpropanoyloxy)ethoxycarbonyl]-2,5-dihydroxy-phenyl]methyl-sulfonyl-methyl]-2,5-dihydroxy-benzoic acid 1-(2,2-dimethylpropanoyloxy)ethyl ester], in data set [1], the “Stability in human plasma (in words)” value was “hydrolyzed rapidly”. The “Stability in mouse plasma (in words)” value in data set [2] was “hydrolyzed rapidly”.

For `CC(C)(C)C(=O)OCOC(=O)c1cc(O)cc(CS(=O)(=O)Cc2cc(O)cc(C(=O)O)c2O)c1O` [IVc-059a-pivm1, 2,5-Dihydroxy-3-[[2,5-dihydroxy-3-(2,2-dimethylpropanoyloxymethoxycarbonyl)phenyl]methyl-sulfonylmethyl]benzoic acid], the half-life in data set [1] was more than 180 min. Besides, in data set [2], the “Stability in mouse plasma (in words)” value was “hydrolyzed rapidly” and the half-life was 6.7 min.
